SMILES strings stand for the structures.

`*Oc1ccc(S(=O)(=O)c2ccc(Oc3c(C)cc(C(C)(C)c4cc(C)c(*)c(C)c4)cc3C)cc2C(O)(C(F)(F)F)C(F)(F)F)c(C(O)(C(F)(F)F)C(F)(F)F)c1` (repeat unit) came in with a CO2 permeability of 30 Barrer, an N2 permeability of 1.5 Barrer and an O2 permeability of 8.5 Barrer.

`*c1ccc2c(c1)C1c3ccccc3C2c2cc(N3C(=O)c4ccc(C(c5ccc6c(c5)C(=O)N(*)C6=O)(C(F)(F)F)C(F)(F)F)cc4C3=O)ccc21` (repeat unit) returned a CH4 permeability of 7.2 Barrer, a CO2 permeability of 202 Barrer, an H2 permeability of 329 Barrer and an N2 permeability of 10.7 Barrer. The molecule also came in with an O2 permeability of 43.9 Barrer.

For `*c1cccc(C(c2cccc(N3C(=O)c4ccc(C(c5ccc6c(c5)C(=O)N(*)C6=O)(C(F)(F)F)C(F)(F)F)cc4C3=O)c2)(C(F)(F)F)C(F)(F)F)c1` (repeat unit), the CH4 permeability came to 0.08 Barrer, the CO2 permeability turned out to be 5.1 Barrer, the N2 permeability turned out to be 0.261 Barrer and the O2 permeability amounted to 1.8 Barrer.

As to `*CCC(F)(Cl)C(*)(F)F` (repeat unit), the CO2 permeability worked out at 0.607 Barrer, the N2 permeability turned out to be 0.061 Barrer and the O2 permeability stood at 0.152 Barrer.

`*c1ccc(Cc2ccc(N3C(=O)c4ccc(C(c5ccc6c(c5)C(=O)N(*)C6=O)(C(F)(F)F)C(F)(F)F)cc4C3=O)cc2)cc1` (repeat unit) gave a CH4 permeability of 0.344 Barrer, a CO2 permeability of 15.2 Barrer, an H2 permeability of 44.7 Barrer and an N2 permeability of 0.686 Barrer. This molecule registered an O2 permeability of 3.88 Barrer.

As for `*OC1OC(COC(=O)NC(C)(C)C)C(*)C(OC(C)=O)C1OC(C)=O` (repeat unit), the CH4 permeability is 1.4 Barrer, the CO2 permeability worked out at 28.5 Barrer, the H2 permeability is 31 Barrer and the N2 permeability was 0.98 Barrer. The O2 permeability came out at 4.3 Barrer.

Molecule `*c1ccc(Oc2ccc(C(*)(c3ccccc3)C(F)(F)F)cc2)cc1` (repeat unit) gave a CH4 permeability of 0.65 Barrer, a CO2 permeability of 17 Barrer, an H2 permeability of 28 Barrer and an N2 permeability of 0.69 Barrer. The molecule also gave an O2 permeability of 3.5 Barrer.

Consider `*C(C)=C(*)CCCCCC` (repeat unit), for which the CH4 permeability was determined as 64 Barrer, the CO2 permeability was determined as 230 Barrer, the H2 permeability stood at 140 Barrer and the N2 permeability amounted to 23 Barrer. In addition, the O2 permeability worked out at 60 Barrer.

The molecule `*c1ccc(Oc2ccc(C3(c4ccc(Oc5ccc(N6C(=O)c7ccc(C(c8ccc9c(c8)C(=O)N(*)C9=O)(C(F)(F)F)C(F)(F)F)cc7C6=O)cc5)cc4)OC(=O)c4ccccc43)cc2)cc1` (repeat unit) came in with a CH4 permeability of 0.455 Barrer, a CO2 permeability of 16.5 Barrer, an N2 permeability of 0.965 Barrer and an O2 permeability of 4.83 Barrer.

As for `*Oc1ccc(C(=O)c2ccc(Oc3ccc(C(c4ccc(*)cc4)(C(F)(F)F)C(F)(F)F)cc3)cc2)c2ccccc12` (repeat unit), the CH4 permeability was 0.21 Barrer, the CO2 permeability stood at 6.04 Barrer, the N2 permeability was 0.325 Barrer and the O2 permeability came to 1.85 Barrer.

The molecule `*c1ccc(Oc2ccc(S(=O)(=O)c3ccc(Oc4ccc(S(*)(=O)=O)cc4)cc3)cc2)cc1` (repeat unit) returned a CH4 permeability of 0.13 Barrer, a CO2 permeability of 2.88 Barrer, an H2 permeability of 8.35 Barrer and an N2 permeability of 0.13 Barrer. This molecule showed an O2 permeability of 0.83 Barrer.

`*Oc1ccc(C(=O)c2ccc(Oc3c(C)cc(-c4cc(C)c(*)c(C)c4)cc3C)cc2)cc1` (repeat unit) displayed a CH4 permeability of 1.02 Barrer, a CO2 permeability of 19.4 Barrer, an N2 permeability of 0.971 Barrer and an O2 permeability of 4.76 Barrer.

As to `*c1ccc(Cc2ccc(N3C(=O)c4ccc(Sc5ccc6c(c5)C(=O)N(*)C6=O)cc4C3=O)cc2)cc1` (repeat unit), the H2 permeability was 5.43 Barrer, the N2 permeability is 0.027 Barrer and the O2 permeability came to 0.246 Barrer.

`*OCCCCCC(*)=O` (repeat unit) returned a CH4 permeability of 1.57 Barrer, a CO2 permeability of 16.8 Barrer, an H2 permeability of 5.06 Barrer and an N2 permeability of 0.59 Barrer. In addition, the O2 permeability amounted to 1.32 Barrer.

Molecule `*CC(*)C(=O)OCCCCCCCCCCCCCC` (repeat unit) displayed a CH4 permeability of 65.1 Barrer, a CO2 permeability of 297 Barrer, an H2 permeability of 96.2 Barrer and an N2 permeability of 22.1 Barrer. Besides, the O2 permeability was 57.1 Barrer.

For `*Nc1c(C)cc(Cc2cc(C)c(NC(=O)c3ccc(Oc4cc(C(C)(C)C)c(Oc5ccc(C(*)=O)cc5)cc4C(C)(C)C)cc3)c(C(C)C)c2)cc1C(C)C` (repeat unit), the CH4 permeability was found to be 1.21 Barrer, the CO2 permeability came out at 27 Barrer, the N2 permeability turned out to be 1.18 Barrer and the O2 permeability amounted to 6.47 Barrer.

In turn, `*c1c(C)c(C)c(N2C(=O)c3ccc(Oc4c(C)ccc(C)c4Oc4ccc5c(c4)C(=O)N(*)C5=O)cc3C2=O)c(C)c1C` (repeat unit) gave a CH4 permeability of 1.9 Barrer, a CO2 permeability of 63 Barrer, an H2 permeability of 100 Barrer and an N2 permeability of 2.05 Barrer. Further, the O2 permeability came to 11 Barrer.

`*/N=C1/c2cc(C(c3ccc4c(c3)C(=O)n3c-4nc4c(Oc5ccc(*)c(*)c5)cccc43)(C(F)(F)F)C(F)(F)F)ccc2C(=O)N1*` (repeat unit) displayed a CH4 permeability of 0.54 Barrer, a CO2 permeability of 27.6 Barrer, an N2 permeability of 1.22 Barrer and an O2 permeability of 7.9 Barrer.

In turn, `*C/C(C)=C(\C)C*` (repeat unit) had a CH4 permeability of 0.786 Barrer, a CO2 permeability of 7.47 Barrer, an H2 permeability of 17 Barrer and an N2 permeability of 0.472 Barrer. The molecule further showed an O2 permeability of 2.1 Barrer.

Take `*OC(=O)Oc1c(Cl)cc(C(C)(C)c2cc(Cl)c(*)c(Cl)c2)cc1Cl` (repeat unit): the CH4 permeability worked out at 0.223 Barrer, the CO2 permeability was determined as 6.68 Barrer, the N2 permeability came out at 0.36 Barrer and the O2 permeability is 2.29 Barrer.

`*c1ccc(-c2ccc(N3C(=O)c4ccc(C(c5ccc6c(c5)C(=O)N(*)C6=O)(C(F)(F)F)C(F)(F)F)cc4C3=O)c(N)c2)cc1N` (repeat unit) displayed a CO2 permeability of 138 Barrer, an N2 permeability of 5.2 Barrer and an O2 permeability of 34 Barrer.

`*c1c(C)c(C)c(N2C(=O)c3ccc(C(=O)c4ccc5c(c4)C(=O)N(*)C5=O)cc3C2=O)c(C)c1C` (repeat unit) returned an H2 permeability of 108 Barrer, an N2 permeability of 2.63 Barrer and an O2 permeability of 11.8 Barrer.

Molecule `*c1ccc(-c2ccc(-n3c(=O)c4cc5oc6cc7c(cc6oc5cc4c3=O)C3(CC(C)(C)c4cc5oc6cc8c(=O)n(*)c(=O)c8cc6oc5cc43)CC7(C)C)cc2C(F)(F)F)c(C(F)(F)F)c1` (repeat unit) displayed a CH4 permeability of 20 Barrer, a CO2 permeability of 420 Barrer, an H2 permeability of 300 Barrer and an N2 permeability of 16 Barrer. This molecule showed an O2 permeability of 64 Barrer.

In the case of `*c1ccc(Cc2ccc(N3C(=O)c4ccc(-c5ccc6c(c5)C(=O)N(*)C6=O)cc4C3=O)c(C)c2)cc1C` (repeat unit), the CH4 permeability is 0.0278 Barrer, the CO2 permeability came out at 1.41 Barrer, the N2 permeability was 0.0483 Barrer and the O2 permeability amounted to 0.369 Barrer.

As to `*O[Si](C)(C)CCCCCC[Si](*)(C)C` (repeat unit), the CH4 permeability came to 395 Barrer, the CO2 permeability was 1310 Barrer and the O2 permeability was found to be 265 Barrer.

`*c1ccc(Oc2ccc3ccccc3c2-c2c(Oc3ccc(N4C(=O)c5ccc(C(c6ccc7c(c6)C(=O)N(*)C7=O)(C(F)(F)F)C(F)(F)F)cc5C4=O)cc3C)ccc3ccccc23)c(C)c1` (repeat unit) yielded a CH4 permeability of 0.28 Barrer, a CO2 permeability of 18.4 Barrer, an H2 permeability of 26.2 Barrer and an N2 permeability of 0.53 Barrer. The same molecule had an O2 permeability of 3.35 Barrer.

`*Cc1ccc(C*)c(C#N)c1` (repeat unit) displayed a CO2 permeability of 0.301 Barrer, an H2 permeability of 1.78 Barrer and an O2 permeability of 0.0904 Barrer.

On to `*Oc1ccc(S(=O)(=O)c2ccc(Oc3ccc4cc(*)ccc4c3)cc2)cc1` (repeat unit), for which the CH4 permeability turned out to be 0.0366 Barrer, the CO2 permeability is 1.5 Barrer, the H2 permeability came out at 7.25 Barrer and the N2 permeability worked out at 0.0507 Barrer. The same molecule registered an O2 permeability of 0.38 Barrer.

With `*c1ccc(Oc2ccc(N3C(=O)c4cc(Oc5ccc(C)cc5)c(-c5cc6c(cc5Oc5ccc(C)cc5)C(=O)N(*)C6=O)cc4C3=O)cc2)cc1` (repeat unit), the CH4 permeability was found to be 1.45 Barrer, the CO2 permeability was found to be 44 Barrer, the N2 permeability is 1.25 Barrer and the O2 permeability came out at 4.99 Barrer.

`*c1ccc(Cc2ccc(N3C(=O)c4ccc(C(c5ccc6c(c5)C(=O)N(*)C6=O)(C(F)(F)F)C(F)(F)F)cc4C3=O)c(Cl)c2)cc1Cl` (repeat unit) registered a CH4 permeability of 0.121 Barrer, a CO2 permeability of 6.78 Barrer, an N2 permeability of 0.269 Barrer and an O2 permeability of 1.81 Barrer.

With `*c1cccc(-c2cc(C)c(-c3cccc(*)c3C)cc2C)c1C` (repeat unit), the CH4 permeability was determined as 5.6 Barrer, the CO2 permeability is 190 Barrer, the H2 permeability stood at 210 Barrer and the N2 permeability turned out to be 7.3 Barrer. The molecule further came in with an O2 permeability of 32 Barrer.

The molecule `*C(=C(*)c1ccc([Si](C)(C)CCCCCCCC)cc1)c1ccccc1` (repeat unit) registered a CO2 permeability of 170 Barrer, an N2 permeability of 11 Barrer and an O2 permeability of 34 Barrer.

Consider `*Oc1ccc(C(c2ccc(OC(=O)c3cccc(C(*)=O)c3)cc2)(C(F)(F)F)C(F)(F)F)cc1` (repeat unit), for which the CH4 permeability was 0.736 Barrer, the CO2 permeability stood at 16.6 Barrer, the H2 permeability is 37.3 Barrer and the N2 permeability came to 0.958 Barrer. Moreover, the O2 permeability was 4.54 Barrer.

Values taken from a polymer gas permeability compilation.
